PMC4959957 (British Journal of Pharmacology, 2016)

Target: T1, Asu-ACR-16 (Ascaris suum, UniProt A0A0K0QSL7)
T1 sequence (A0A0K0QSL7 24-504): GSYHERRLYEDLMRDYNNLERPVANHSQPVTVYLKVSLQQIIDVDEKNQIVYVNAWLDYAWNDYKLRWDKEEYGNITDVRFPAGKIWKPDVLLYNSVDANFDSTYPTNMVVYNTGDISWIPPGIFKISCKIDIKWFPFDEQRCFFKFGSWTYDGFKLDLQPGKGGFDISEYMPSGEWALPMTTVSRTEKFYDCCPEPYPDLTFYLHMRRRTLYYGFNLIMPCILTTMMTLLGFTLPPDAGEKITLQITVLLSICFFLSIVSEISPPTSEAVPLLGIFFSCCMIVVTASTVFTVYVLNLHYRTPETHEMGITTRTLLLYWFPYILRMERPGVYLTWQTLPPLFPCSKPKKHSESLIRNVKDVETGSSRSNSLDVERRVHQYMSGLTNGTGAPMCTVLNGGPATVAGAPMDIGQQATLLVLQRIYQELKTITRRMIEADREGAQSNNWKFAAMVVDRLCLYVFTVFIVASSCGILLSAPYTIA
Experiment: two-electrode voltage clamp, agonist concentration-response in Xenopus oocytes
Type: cell-based

Row | SMILES | EC50 [µM]
1 | CC(=O)OCC[N+](C)(C)C [ACh] | 5.9 ± 0.1
2 | CN1CCC[C@H]1c1cccnc1 [nic, nicotine] | 4.5 ± 0.2
